Experimental data as given in PubChem BioAssay (NCI).
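Compound exposure: 48 hours, 5 concentrations, 96-well plates. Here, GI50 denotes the concentration required for 50% inhibition of growth. TGI: total growth inhibition.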

Columns and labels:
Assay in all cases: NCI tumour cell line growth inhibition, 48 h
SNB-19 CNS = tested on: SNB-19 CNS
SK-MEL-2 melanoma = tested on: SK-MEL-2 melanoma
M14 melanoma = tested on: M14 melanoma
TK-10 renal = tested on: TK-10 renal
SK-MEL-5 melanoma = tested on: SK-MEL-5 melanoma
HT29 colon = tested on: HT29 colon
K-562 leukemia = tested on: K-562 leukemia
NCI/ADR-RES ovarian = tested on: NCI/ADR-RES ovarian
MDA-MB-435 = tested on: MDA-MB-435
MDA-MB-231 breast = tested on: MDA-MB-231 breast

SMILES | TGI (SNB-19 CNS) | TGI (SK-MEL-2 melanoma) | TGI (M14 melanoma) | TGI (TK-10 renal) | TGI (SK-MEL-5 melanoma) | TGI (HT29 colon) | TGI (K-562 leukemia) | GI50 (SNB-19 CNS) | GI50 (SK-MEL-2 melanoma) | GI50 (M14 melanoma) | GI50 (TK-10 renal) | GI50 (SK-MEL-5 melanoma) | GI50 (HT29 colon) | GI50 (K-562 leukemia) | GI50 (NCI/ADR-RES ovarian) | TGI (NCI/ADR-RES ovarian) | GI50 (MDA-MB-435) | TGI (MDA-MB-435) | GI50 (MDA-MB-231 breast) | TGI (MDA-MB-231 breast)
O=C1CCC(O)=C1N=Nc1ccccc1 | > 100 µM | > 100 µM | > 100 µM | > 100 µM | > 100 µM | > 100 µM | > 100 µM |  |  |  |  |  |  |  |  |  |  |  |  | 
O=C(c1ccccc1)C1OC12C(=O)Nc1ccccc12 (stereo not drawn) | > 100 µM | > 100 µM | 63 µM | > 100 µM | 47.3 µM | 37.9 µM | 24.3 µM |  |  |  |  |  |  |  |  |  |  |  |  | 
c1ccc(C2Nc3ccccc3C3OCCCC23)cc1 (stereo not drawn) | > 100 µM | 82.2 µM |  |  | 31.5 µM |  | > 100 µM |  |  |  |  |  |  |  |  |  |  |  |  | 
CSC(C1c2ccccc2N(c2ccc(C)cc2)c2[nH]c(=O)n(C)c(=O)c21)S(=O)(=O)c1ccc(C)cc1 (stereo not drawn) | > 100 µM | > 100 µM | > 100 µM | > 100 µM | > 100 µM | > 100 µM | > 100 µM |  |  |  |  |  |  |  |  |  |  |  |  | 
CCN(CC)c1ccc(N=Nc2ccc(-c3nc4ccc[n+](C)c4s3)cc2)cc1 | 25.1 µM | 25.5 µM | 37.6 µM | 34.5 µM | 33.9 µM | 18.5 µM | > 100 µM |  |  |  |  |  |  |  |  |  |  |  |  | 
C/C(CC(=O)NCCc1ccccc1)=N\NC(=O)C[n+]1ccccc1 |  | > 100 µM | > 100 µM | > 100 µM | > 100 µM | > 100 µM | > 100 µM |  |  |  |  |  |  |  |  |  |  |  |  | 
CN(C)c1cc[c]([Sn]([c]2ccc(N(C)C)cc2)([c]2ccc(N(C)C)cc2)[c]2ccc(N(C)C)cc2)cc1 | 23 µM | 29.3 µM | 21.6 µM | 31.4 µM | 14.2 µM | 12.7 µM | 7.33 µM | 10.7 µM | 6.83 µM | 9.18 µM | 15.7 µM | 2.85 µM | 2.91 µM | 2.02 µM |  |  |  |  |  | 
C1C[OH+]CC[OH+]CC[OH+]CC[OH+]CC[OH+]1.[Cl-].[V] | > 100 µM | > 100 µM | > 100 µM | > 100 µM | 26.6 µM | > 100 µM | > 100 µM | 43.5 µM | 48.2 µM | 45.3 µM | 83.5 µM | 7.48 µM | > 100 µM | > 100 µM |  |  |  |  |  | 
CC(CO)(CO)NCCCCn1ccc2c1C(=O)c1c(c(O)c3ccccc3c1O)C2=O | 42.2 µM |  | 3.41 µM | 4.57 µM |  |  |  | 18.4 µM |  | 1.73 µM | 1.51 µM |  |  |  | 2.36 µM | 6.02 µM | 1.76 µM | 3.56 µM |  | 
CCCCCCCCCCCCCCCCCCOc1ccccc1CC(=O)OCC[N+]1(C)CCCC1 |  |  | 5.46 µM | 3.08 µM |  |  | 10.5 µM |  |  | 2.28 µM | 1.52 µM |  |  | 2.81 µM | 15.1 µM | 42.4 µM | 1.73 µM | 3.31 µM | 1.7 µM | 3.55 µM
COc1c(CCl)cc(-c2cc(=O)c3ccccc3s2)cc1CCl | > 88.9 µM | > 100 µM | > 100 µM | 99.7 µM | > 100 µM |  | > 100 µM |  |  |  |  |  |  |  |  | > 100 µM |  | > 100 µM |  | 
C=CCc1ccc(Oc2cc(CC=C)c3c(c2O)O[C@@H](CO)[C@H]3c2ccc(O)c(-c3cc(CC=C)ccc3O)c2)cc1 | > 100 µM | 65.7 µM | > 100 µM | > 100 µM | > 100 µM | 49.1 µM | > 100 µM |  |  |  |  |  |  |  |  |  |  |  |  | 
